The values below come from paper PMC4400266 (ACS chemical neuroscience, 2015).

One assay has as its target T1, human OX2 receptors (Homo sapiens, UniProt O43614).
T1 sequence (O43614 1-444): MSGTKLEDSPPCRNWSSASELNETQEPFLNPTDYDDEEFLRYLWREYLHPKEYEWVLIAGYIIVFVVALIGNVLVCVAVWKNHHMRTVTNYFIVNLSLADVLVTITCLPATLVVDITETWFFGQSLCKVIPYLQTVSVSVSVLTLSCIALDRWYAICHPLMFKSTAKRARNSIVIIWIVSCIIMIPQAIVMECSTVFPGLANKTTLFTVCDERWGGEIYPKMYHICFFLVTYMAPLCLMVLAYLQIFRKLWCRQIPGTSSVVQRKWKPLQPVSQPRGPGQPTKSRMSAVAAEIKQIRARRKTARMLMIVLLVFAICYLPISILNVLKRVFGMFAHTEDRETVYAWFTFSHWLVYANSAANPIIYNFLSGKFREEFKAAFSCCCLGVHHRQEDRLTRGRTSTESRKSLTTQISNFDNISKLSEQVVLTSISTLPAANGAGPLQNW
Kind of assay: Calcium mobilization Ke assay. In kind it is cell-based. A general note: A change in cytosolic calcium serves as a functional read-out for many receptors and channels.

Another assay has as its target T2, human OX1 receptors (Homo sapiens, UniProt O43613).
T2 sequence (O43613 1-425): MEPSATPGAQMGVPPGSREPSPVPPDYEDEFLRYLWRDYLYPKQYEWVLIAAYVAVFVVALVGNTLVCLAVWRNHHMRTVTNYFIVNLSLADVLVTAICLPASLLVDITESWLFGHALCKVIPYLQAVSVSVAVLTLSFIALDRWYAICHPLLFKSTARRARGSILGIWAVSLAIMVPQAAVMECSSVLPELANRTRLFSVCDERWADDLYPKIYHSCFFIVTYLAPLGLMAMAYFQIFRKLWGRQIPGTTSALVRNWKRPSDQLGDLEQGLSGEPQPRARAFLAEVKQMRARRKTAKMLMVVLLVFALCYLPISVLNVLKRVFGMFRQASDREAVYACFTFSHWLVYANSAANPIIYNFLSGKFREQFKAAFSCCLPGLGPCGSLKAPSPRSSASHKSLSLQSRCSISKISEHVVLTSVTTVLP
Kind of assay: Calcium mobilization Ke assay. In kind it is cell-based. As to conditions: for OX2/OX1: ratio of Ke OX2 to Ke OX1 (table column).

On to `CCN(CC)c1cc(CC2c3cc(OC)c(OC)cc3CCN2CC(=O)NCc2ccccc2)ccc1OC` (stereo not shown) [Compound 30, N-Benzyl-2-(1-{[3-(diethylamino)-4-methoxyphenyl]methyl}-6,7-dimethoxy-1,2,3,4-tetrahydroisoquinolin-2-yl)acetamide], for which the Kb on human OX2 receptors was greater than 10 µM. Further, the OX2/OX1 on human OX1 receptors is greater than 48.
In the case of `COc1cc2c(cc1OC)C(Cc1ccc(OC)c([N+](=O)[O-])c1)N(CC(=O)NCc1ccccc1)CC2` (stereo not shown) [Compound 26, N-Benzyl-2-{6,7-dimethoxy-1-[(4-methoxy-3-nitrophenyl)methyl]-1,2,3,4-tetrahydroisoquinolin-2-yl}acetamide], the “decrease in OX1 potency compared to 11” value at human OX1 receptors is ~ 7 fold.
For `COc1ccc(CC2c3cc(OC)c(OC)cc3CCN2CC(=O)NCc2ccccc2)cc1NCc1ccccc1` (stereo not shown) [Compound 33, N-Benzyl-2-(1-{[3-(benzylamino)-4-methoxyphenyl]methyl}-6,7-dimethoxy-1,2,3,4-tetrahydroisoquinolin-2-yl)acetamide], at human OX1 receptors (at concentrations up to 10 μM), the “OX1 antagonist activity in words” value is listed as “no activity”.
For `CCCCCCOc1ccc(CC2c3cc(OC)c(OC)cc3CCN2CC(=O)NCc2ccccc2)cc1OC` (stereo not shown) [Compound 14, N-Benzyl-2-(1-{[4-(hexyloxy)-3-methoxyphenyl]methyl}-6,7-dimethoxy-1,2,3,4-tetrahydroisoquinolin-2-yl)acetamide], on human OX2 receptors, the Kb is greater than 10 µM. The OX2/OX1 at human OX1 receptors is reported as greater than 83.
For `CCCOc1ccc(CC2c3cc(OC)c(OC)cc3CCN2CC(=O)NCc2ccccc2)cc1` (stereo not shown) [Compound 45, N-Benzyl-2-{6,7-dimethoxy-1-[(4-propoxyphenyl)methyl]-1,2,3,4-tetrahydroisoquinolin-2-yl}acetamide] the same measures were greater than 10 µM and greater than 27.
On the same counts, the results for `CCNc1cc(CC2c3cc(OC)c(OC)cc3CCN2CC(=O)NCc2ccccc2)ccc1OC` (stereo not shown) [Compound 29, N-Benzyl-2-(1-{[3-(ethylamino)-4-methoxyphenyl]methyl}-6,7-dimethoxy-1,2,3,4-tetrahydroisoquinolin-2-yl)acetamide] are greater than 10 µM and greater than 32.
For `COc1cc2c(cc1OC)C(Cc1ccc(OCc3ccccc3)c(OC)c1)N(CC(=O)NCc1ccccc1)CC2` (stereo not shown) [Compound 18, N-Benzyl-2-(1-{[4-(benzyloxy)-3-methoxyphenyl]methyl}-6,7-dimethoxy-1,2,3,4-tetrahydroisoquinolin-2-yl)acetamide], the “decrease in OX1 potency compared to 11” value on human OX1 receptors stood at 2 fold.
For `COc1cc2c(cc1OC)C(Cc1ccc(C(C)C)cc1)N(CC(=O)NCc1ccccc1)CC2` (stereo not shown) [Compound 51, N-Benzyl-2-(6,7-dimethoxy-1-{[4-(propan-2-yl)phenyl]methyl}-1,2,3,4-tetrahydroisoquinolin-2-yl)acetamide], the Kb at human OX2 receptors is greater than 10 µM. Moreover, the OX2/OX1 on human OX1 receptors is greater than 118.
For `COc1cc2c(cc1OC)C(Cc1ccc(OC(C)C)cc1)N(CC(=O)NCc1ccccc1)CC2` (stereo not shown) [Compound 46, N-Benzyl-2-(6,7-dimethoxy-1-{[4-(propan-2-yloxy)phenyl]methyl}-1,2,3,4-tetrahydroisoquinolin-2-yl)acetamide] the same measures were greater than 10 µM and greater than 20.
For `COc1cc2c(cc1OC)C(Cc1ccc(N(C)C)cc1)N(CC(=O)NCc1ccccc1)CC2` (stereo not shown) [Compound 48, N-Benzyl-2-(1-{[4-(dimethylamino)phenyl]methyl}-6,7-dimethoxy-1,2,3,4-tetrahydroisoquinolin-2-yl)acetamide] the same measures were greater than 10 µM and greater than 40.
For `CCCCOc1ccc(CC2c3cc(OC)c(OC)cc3CCN2CC(=O)NCc2ccccc2)cc1OC` (stereo not shown) [Compound 13, N-Benzyl-2-{1-[(4-butoxy-3-methoxyphenyl)methyl]-6,7-dimethoxy-1,2,3,4-tetrahydroisoquinolin-2-yl}acetamide] the same measures were 2 ± 0.86 µM and 42.
For the compound `COc1cc2c(cc1OC)C(Cc1ccc(OC)c(N(C)C)c1)N(CC(=O)NCc1ccccc1)CC2` (stereo not shown) [Compound 28, N-Benzyl-2-(1-{[3-(dimethylamino)-4-methoxyphenyl]methyl}-6,7-dimethoxy-1,2,3,4-tetrahydroisoquinolin-2-yl)acetamide], the Kb at human OX2 receptors stood at 0.97 ± 0.35 µM. Moreover, on human OX1 receptors, the OX2/OX1 is 76.7.
For the compound `COc1cc2c(cc1OC)C(Cc1ccc(C)c(C)c1)N(CC(=O)NCc1ccccc1)CC2` (stereo not shown) [Compound 53, N-Benzyl-2-{1-[(3,4-dimethylphenyl)methyl]-6,7-dimethoxy-1,2,3,4-tetrahydroisoquinolin-2-yl}acetamide], the Kb at human OX2 receptors is greater than 10 µM.
As to `COc1cc(CC2c3cc(OC)c(OC)cc3CCN2CC(=O)NCc2ccccc2)ccc1O` (stereo not shown) [Compound 12, N-Benzyl-2-{1-[(4-hydroxy-3-methoxyphenyl)methyl]-6,7-dimethoxy-1,2,3,4-tetrahydroisoquinolin-2-yl}acetamide], the Kb on human OX2 receptors is greater than 10 µM. For the same compound, at human OX1 receptors, the OX2/OX1 was greater than 24.
Take `COc1ccc(CCC2c3cc(OC)c(OC)cc3CCN2CC(=O)NCc2ccccc2)cc1OC` (stereo not shown) [Compound 60, N-Benzyl-2-{1-[2-(3,4-dimethoxyphenyl)ethyl]-6,7-dimethoxy-1,2,3,4-tetrahydroisoquinolin-2-yl}acetamide]: the Kb at human OX2 receptors was greater than 10 µM.
Consider `CCCC(=O)Oc1ccc(CC2c3cc(OC)c(OC)cc3CCN2CC(=O)NCc2ccccc2)cc1OC` (stereo not shown) [Compound 16, 4-({2-[(Benzylcarbamoyl)methyl]-6,7-dimethoxy-1,2,3,4-tetrahydroisoquinolin-1-yl}methyl)-2-methoxyphenyl butanoate], for which, at human OX2 receptors, the Kb came out at 2.08 ± 0.6 µM. Besides, the OX2/OX1 on human OX1 receptors came out at 48.
On the same counts, the results for `COc1cc2c(cc1OC)C(Cc1cccc(N(C)C)c1)N(CC(=O)NCc1ccccc1)CC2` (stereo not shown) [Compound 44, N-Benzyl-2-(1-{[3-(dimethylamino)phenyl]methyl}-6,7-dimethoxy-1,2,3,4-tetrahydroisoquinolin-2-yl)acetamide] are 0.66 ± 0.16 µM and 8.8.
For `COc1cc2c(cc1OC)C(Cc1ccc3ccccc3c1)N(CC(=O)NCc1ccccc1)CC2` (stereo not shown) [Compound 54, N-Benzyl-2-[6,7-dimethoxy-1-(naphthalen-2-ylmethyl)-1,2,3,4-tetrahydroisoquinolin-2-yl]acetamide] the same measures were 1.62 ± 0.23 µM and 6.6.
As for `COc1cc2c(cc1OC)C(Cc1ccc3ncccc3c1)N(CC(=O)NCc1ccccc1)CC2` (stereo not shown) [Compound 55, N-Benzyl-2-[6,7-dimethoxy-1-(quinolin-6-ylmethyl)-1,2,3,4-tetrahydroisoquinolin-2-yl]acetamide], at human OX2 receptors, the Kb is greater than 10 µM. For the same compound, the OX2/OX1 at human OX1 receptors is recorded as greater than 23.
For the compound `COc1cc2c(cc1OC)C(C(C)c1ccccc1)N(CC(=O)NCc1ccccc1)CC2` (stereo not shown) [Compound 56, N-Benzyl-2-[6,7-dimethoxy-1-(1-phenylethyl)-1,2,3,4-tetrahydroisoquinolin-2-yl]acetamide], on human OX2 receptors, the Kb was greater than 10 µM.
With `COc1cc2c(cc1OC)C(Cc1ccc(OS(=O)(=O)c3ccccc3)c(OC)c1)N(CC(=O)NCc1ccccc1)CC2` (stereo not shown) [Compound 23, 4-({2-[(Benzylcarbamoyl)methyl]-6,7-dimethoxy-1,2,3,4-tetrahydroisoquinolin-1-yl}methyl)-2-methoxyphenyl benzenesulfonate], the “decrease in OX1 potency compared to 11” value on human OX1 receptors was ~ 9 fold.
`COc1cc2c(cc1OC)C(Cc1cccc(OC(C)C)c1)N(CC(=O)NCc1ccccc1)CC2` (stereo not shown) [Compound 41, N-Benzyl-2-(6,7-dimethoxy-1-{[3-(propan-2-yloxy)phenyl]methyl}-1,2,3,4-tetrahydroisoquinolin-2-yl)acetamide]: the Kb on human OX2 receptors was greater than 10 µM. Besides, at human OX1 receptors, the “decrease in OX1 potency compared to 11” value was ~ 7 fold and the OX2/OX1 was greater than 6.8.
As for `COc1cc2c(cc1OC)C(Cc1cccc([N+](=O)[O-])c1)N(CC(=O)NCc1ccccc1)CC2` (stereo not shown) [Compound 42, N-Benzyl-2-{6,7-dimethoxy-1-[(3-nitrophenyl)methyl]-1,2,3,4-tetrahydroisoquinolin-2-yl}acetamide], the Kb at human OX2 receptors was 1.2 ± 0.16 µM. The OX2/OX1 at human OX1 receptors is on record as less than 0.12.
Consider `CCCNc1cc(CC2c3cc(OC)c(OC)cc3CCN2CC(=O)NCc2ccccc2)ccc1OC` (stereo not shown) [Compound 31, N-Benzyl-2-(6,7-dimethoxy-1-{[4-methoxy-3-(propylamino)phenyl]methyl}-1,2,3,4-tetrahydroisoquinolin-2-yl)acetamide], for which the Kb on human OX2 receptors was greater than 10 µM. The OX2/OX1 on human OX1 receptors is greater than 11.
With `COc1cc2c(cc1OC)C(Cc1cc(OC)c(OC)c(OC)c1)N(CC(=O)NCc1ccccc1)CC2` (stereo not shown) [Compound 52, N-Benzyl-2-{6,7-dimethoxy-1-[(3,4,5-trimethoxyphenyl)methyl]-1,2,3,4-tetrahydroisoquinolin-2-yl}acetamide], the Kb on human OX2 receptors was greater than 10 µM.
